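Briefly, cells in 96-well plates were exposed to five compound concentrations for 48 h, and endpoints were estimated by linear interpolation. The concentration for 50% growth inhibition is given as GI50.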 The source made the active and inactive calls. Cut-off read from the data, not from the text of the source: active = GI50 up to about 1.1 µM and inactive = higher.
How the values were obtained:
Experiment in all cases: growth of human tumour cells (NCI), 48 h
A549 = system: A549
HCC 2998 = system: HCC 2998
HL-60 = system: HL-60
IGROV-1 = system: IGROV-1
KM12 = system: KM12
LOX IMVI = system: LOX IMVI
MOLT-4 = system: MOLT-4
Malme-3M = system: Malme-3M
OVCAR-5 = system: OVCAR-5
SF-295 = system: SF-295
SK-MEL-28 = system: SK-MEL-28
SK-OV-3 = system: SK-OV-3
SN12C = system: SN12C
SW-620 = system: SW-620
U-251 = system: U-251
BT-549 = system: BT-549
MCF7 = system: MCF7
MDA-MB-435 = system: MDA-MB-435
PC-3 = system: PC-3

Measured: GI50

Cc1cc2c3c(coc3c1-c1c(C)cc3c4c(coc14)C(=O)C(O)=C3C(C)C)C(=O)C(O)=C2C(C)C
inactive: A549 4.05 µM | HCC 2998 3.68 µM | HL-60 3.42 µM | IGROV-1 3.99 µM | KM12 4.3 µM | LOX IMVI 5.7 µM | MOLT-4 3.66 µM | Malme-3M 15.6 µM | OVCAR-5 17.9 µM | SF-295 5.37 µM | SK-MEL-28 10.1 µM | SK-OV-3 19.2 µM | SN12C 10.1 µM | SW-620 5.2 µM | U-251 3.66 µM

NS(=O)(=O)c1nnc(NS(=O)(=O)c2ccc([N+](=O)[O-])cc2)s1
inactive: A549 > 100 µM | BT-549 > 100 µM | HCC 2998 > 100 µM | HL-60 > 100 µM | IGROV-1 > 100 µM | KM12 > 100 µM | LOX IMVI 30.4 µM | MCF7 > 100 µM | MDA-MB-435 > 100 µM | MOLT-4 26.3 µM | Malme-3M > 100 µM | OVCAR-5 > 100 µM | PC-3 > 100 µM | SF-295 > 100 µM | SK-MEL-28 > 100 µM | SK-OV-3 > 100 µM | SW-620 > 100 µM | U-251 > 100 µM

CC(C)CC(NC(=O)c1cccc(O)c1O)C(=O)NCc1cc(CNC(=O)C(CC(C)C)NC(=O)c2cccc(O)c2O)cc(CNC(=O)C(CC(C)C)NC(=O)c2cccc(O)c2O)c1 (configuration not stated)
inactive: A549 18.6 µM | HCC 2998 7.8 µM | HL-60 4.34 µM | IGROV-1 5.66 µM | KM12 13.8 µM | LOX IMVI 8.63 µM | MOLT-4 11.4 µM | Malme-3M 19.6 µM | OVCAR-5 10.8 µM | SF-295 15.5 µM | SK-MEL-28 13.7 µM | SK-OV-3 9.44 µM | SN12C 12.8 µM | SW-620 17.2 µM | U-251 11.1 µM

O=S(=O)(c1ccccc1)N1CCCC(c2ccccc2)CC1 (configuration not stated)
inactive: A549 27.2 µM | BT-549 58.3 µM | HCC 2998 23.9 µM | HL-60 9.75 µM | IGROV-1 > 100 µM | KM12 41 µM | MCF7 24 µM | MDA-MB-435 82 µM | MOLT-4 15.2 µM | Malme-3M 30.8 µM | OVCAR-5 > 100 µM | PC-3 30.6 µM | SF-295 43.7 µM | SK-MEL-28 > 100 µM | SN12C 46 µM | SW-620 33 µM | U-251 45.5 µM

CC(=O)Nc1ccc(/N=C2\C(c3ccccc3)=C(SC3=C(c4ccccc4)/C(=N\c4ccc(NC(C)=O)cc4)c4ccccc43)c3ccccc32)cc1
inactive: A549 37.2 µM | BT-549 24.8 µM | HCC 2998 26.7 µM | IGROV-1 32.1 µM | KM12 27 µM | LOX IMVI 28.8 µM | MCF7 27.4 µM | MDA-MB-435 26.5 µM | MOLT-4 21.6 µM | Malme-3M 27.2 µM | OVCAR-5 51.5 µM | PC-3 31.1 µM | SF-295 31 µM | SK-MEL-28 32.7 µM | SK-OV-3 35.8 µM | SN12C 61.2 µM | SW-620 40.2 µM | U-251 49.8 µM

C=C1c2nc3ccccc3n2C=C(c2ccccc2)N1c1ccc(C)cc1
inactive: A549 > 100 µM | BT-549 49.9 µM | HCC 2998 9.31 µM | IGROV-1 > 100 µM | KM12 22.7 µM | LOX IMVI 33.6 µM | MCF7 29.5 µM | MDA-MB-435 33.2 µM | MOLT-4 20.6 µM | Malme-3M > 100 µM | OVCAR-5 > 100 µM | PC-3 50.4 µM | SF-295 > 100 µM | SK-OV-3 > 100 µM | SN12C 85.5 µM | SW-620 71.1 µM | U-251 88.1 µM

Cc1ccc(NC(=O)CC/C(CC(=O)c2ccc(Cl)cc2)=N\NC(=O)C(=O)NN)cc1C
inactive: A549 > 100 µM | HCC 2998 > 100 µM | HL-60 > 100 µM | IGROV-1 > 100 µM | KM12 > 100 µM | LOX IMVI > 100 µM | MOLT-4 > 100 µM | Malme-3M > 100 µM | OVCAR-5 > 100 µM | SF-295 > 100 µM | SK-MEL-28 > 100 µM | SK-OV-3 > 100 µM | SN12C > 100 µM | SW-620 > 100 µM | U-251 > 100 µM

CCOC(=O)c1ccc(/N=N/N(C)C(=O)C(C)N)cc1 (configuration not stated)
inactive: BT-549 98.6 µM | HCC 2998 > 100 µM | HL-60 > 100 µM | IGROV-1 72.4 µM | KM12 > 100 µM | LOX IMVI > 100 µM | MCF7 > 100 µM | MDA-MB-435 56.8 µM | MOLT-4 43.7 µM | Malme-3M > 100 µM | OVCAR-5 > 100 µM | PC-3 > 100 µM | SF-295 > 100 µM | SK-MEL-28 > 100 µM | SN12C > 100 µM | SW-620 > 100 µM | U-251 > 100 µM
